Reference: ChEMBL document CHEMBL4706603, “Discovery of VEGFR-2 inhibitors exerting significant anticancer activity against CD44+ and CD133+ cancer stem cells (CSCs): Reversal of TGF-β induced epithelial-mesenchymal transition (EMT) in hepatocellular carcinoma” (Eur J Med Chem, 2020)

Key:
MDA-MB-231 = assay: Induction of apoptosis in human MDA-MB-231 cells assessed as early apoptotic cells at IC50 incubated for 72 hrs by Alexa Fluor488-annexin V/PI staining based flow cytometric analysis (Rvb= 0.6 %); type: functional
[1] = Toxicity in Wistar rat assessed as effect on food consumption at 5 to 2000 mg/kg, po and observed for 14 days; type: organism-based; conditions: in vivo, 336 h, dose 5-2000 mg/kg, time 14 day
[2] = Toxicity in Wistar rat assessed as effect on urea level in serum at 5 to 2000 mg/kg, po and measured on day 15; type: organism-based; conditions: in vivo, 360 h, dose 5-2000 mg/kg, time 15 day
[3] = Retention time in Wistar rat plasma by HPLC-MS analysis; type: ADME, cell-free

Q: Which Activity (MDA-MB-231) does the source give for `CC(=O)Nc1ccc(Oc2cccc3c(NC(=O)Nc4cccc(C(F)(F)F)c4)cccc23)cc1` here?
A: 68.2%

Q: What about the Activity [1] of the same molecule?
A: Non-Toxic

Q: And the Activity [2]?
A: Non-Toxic

Q: And the Retention_time [3]?
A: 10.17 min
